Assay in all cases: stopped-flow CO2 hydration assay
Holding throughout (format): biochemical

The target in one test is T1, hCA II (Homo sapiens, UniProt P00918).
T1 construct: gene CA2; recombinant, cytosolic isoform
An outline of the steps: (§1)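 Inhibition of recombinant human carbonic anhydrase isozymes was measured by stopped-flow following the enzyme-catalysed CO2 hydration for 5–10 s. Assays used 0.2 mM Phenol Red read at 557 nm, 10 mM Hepes (pH 7.4), 10 mM NaClO4, CO2-saturated water at 25 °C as substrate and 5–12 nM enzyme, with inhibitor preincubated with enzyme for 10 min at room temperature. Inhibitor stocks of 10 mM in DMSO-water 1:1 were diluted down to 0.01 nM in assay buffer, using at least seven concentrations. Inhibition constants (Ki) came from non-linear least-squares fitting with the Cheng–Prusoff equation and are means of at least three determinations.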

The next test addresses T2, hCA I (Homo sapiens, UniProt P00915).
T2 construct: gene CA1; recombinant, cytosolic isoform
An outline of the steps: as §1

The target of another test is T3, hCA IX (Homo sapiens, UniProt Q16790).
T3 construct: gene CA9; recombinant, tumor-associated transmembrane isoform
Summed up: as §1

A further test addresses T4, hCA XII (Homo sapiens, UniProt O43570).
T4 construct: gene CA12; recombinant, tumor-associated transmembrane isoform
Summed up: as §1

pKi: −log10 of the molar value.

T2 sequence (P00915 2-261): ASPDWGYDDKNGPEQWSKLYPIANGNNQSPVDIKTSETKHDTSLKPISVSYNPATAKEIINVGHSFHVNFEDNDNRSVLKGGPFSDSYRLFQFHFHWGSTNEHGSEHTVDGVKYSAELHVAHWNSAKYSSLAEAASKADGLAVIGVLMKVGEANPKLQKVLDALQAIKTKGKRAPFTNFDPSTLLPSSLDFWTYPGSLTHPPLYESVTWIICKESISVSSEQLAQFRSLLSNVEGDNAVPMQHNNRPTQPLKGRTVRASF
T4 sequence (O43570 30-289 limits assumed): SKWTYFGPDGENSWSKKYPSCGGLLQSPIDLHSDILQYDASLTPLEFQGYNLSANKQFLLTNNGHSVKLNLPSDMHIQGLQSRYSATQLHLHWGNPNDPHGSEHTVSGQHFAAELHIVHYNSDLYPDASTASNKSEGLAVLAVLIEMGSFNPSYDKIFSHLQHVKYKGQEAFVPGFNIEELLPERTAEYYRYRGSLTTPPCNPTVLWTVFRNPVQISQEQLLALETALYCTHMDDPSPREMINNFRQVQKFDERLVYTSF

For `NS(=O)(=O)c1ccc(NC(=O)CN2C(=O)/C(=C\c3ccccc3)SC2=S)cc1` [7a, (E)-2-(5-Benzylidene-4-oxo-2-thioxothiazolidin-3-yl)-N-(4-sulfamoylphenyl)-acetamide], the pKi on hCA II is 7.16; at hCA I, 6.73; at hCA IX it was 8.06; on hCA XII it was 7.49.

`NS(=O)(=O)c1ccc(NC(=O)CN2C(=O)/C(=C\c3ccc(Cl)cc3)SC2=S)cc1` [7b, (E)-2-(5-(4-Chlorobenzylidene)-4-oxo-2-thioxothiazolidin-3-yl)-N-(4-sulfamoylphenyl)acetamide]: the pKi on hCA II is 7.29; on hCA I, 6.46; on hCA IX, 7.45; on hCA XII, 8.04.

On to `NS(=O)(=O)c1ccc(NC(=O)CN2C(=O)/C(=C\c3ccc(OC(F)(F)F)cc3)SC2=S)cc1` [7c, (E)-2-(4-Oxo-2-thioxo-5-(4-(trifluoromethoxy)benzylidene)thiazolidin-3-yl)-N-(4-sulfamoylphenyl)acetamide], for which the pKi is 6.02 at hCA II, 5.62 on hCA I, 8.01 on hCA IX and 6.80 at hCA XII.

For the molecule `NS(=O)(=O)c1ccc(NC(=O)CN2C(=O)/C(=C\c3ccccc3F)SC2=S)cc1` [7d, (E)-2-(5-(2-Fluorobenzylidene)-4-oxo-2-thioxothiazolidin-3-yl)-N-(4-sulfamoylphenyl)acetamide], the pKi on hCA II was 6.86; at hCA I it was 6.65; at hCA IX, 7.84; at hCA XII it was 7.18.

Take `NS(=O)(=O)c1ccc(NC(=O)CN2C(=O)/C(=C\c3ccc(C(F)(F)F)cc3)SC2=S)cc1` [7e, (E)-2-(4-Oxo-2-thioxo-5-(4-(trifluoromethyl)benzylidene)thiazolidin-3-yl)-N-(4-sulfamoylphenyl)acetamide]: the pKi on hCA II is 7.11; at hCA I, 6.07; on hCA IX it was 8.10; on hCA XII, 8.02.

`C=CCOc1ccc(/C=C2/SC(=S)N(CC(=O)Nc3ccc(S(N)(=O)=O)cc3)C2=O)cc1` [7f, (E)-2-(5-(4-(Allyloxy)benzylidene)-4-oxo-2-thioxothiazolidin-3-yl)-N-(4-sulfamoylphenyl)acetamide]: the pKi on hCA II was 6.49; at hCA I, 6.16; at hCA IX, 8.25; on hCA XII, 7.17.

Take `COc1cc(/C=C2/SC(=S)N(CC(=O)Nc3ccc(S(N)(=O)=O)cc3)C2=O)cc(OC)c1OC` [7g, (E)-2-(4-Oxo-2-thioxo-5-(3,4,5-trimethoxybenzylidene)thiazolidin-3-yl)-N-(4-sulfamoylphenyl)acetamide]: the pKi at hCA II is 7.50; on hCA I, 6.76; on hCA IX, 8.38; on hCA XII, 7.34.

With `CCOc1cc(/C=C2/SC(=S)N(CC(=O)Nc3ccc(S(N)(=O)=O)cc3)C2=O)ccc1O` [7h, (E)-2-(5-(3-Ethoxy-4-hydroxybenzylidene)-4-oxo-2-thioxothiazolidin-3-yl)-N-(4-sulfamoylphenyl)acetamide], the pKi on hCA II was 8.14; at hCA I it was 7.65; at hCA IX, 8.25; on hCA XII it was 7.20.

Take `N#Cc1ccc(/C=C2/SC(=S)N(CC(=O)Nc3ccc(S(N)(=O)=O)cc3)C2=O)cc1` [7i, (E)-2-(5-(4-Cyanobenzylidene)-4-oxo-2-thioxothiazolidin-3-yl)-N-(4-sulfamoylphenyl)acetamide]: the pKi on hCA II was 7.25; at hCA I, 6.90; on hCA IX, 8.14; at hCA XII it was 8.05.

As for `COc1cccc(/C=C2/SC(=S)N(CC(=O)Nc3ccc(S(N)(=O)=O)cc3)C2=O)c1` [7j, (E)-2-(5-(3-Methoxybenzylidene)-4-oxo-2-thioxothiazolidin-3-yl)-N-(4-sulfamoylphenyl)acetamide], the pKi at hCA II was 7.34; at hCA I, 6.64; at hCA IX, 7.80; on hCA XII it was 7.13.

As for `COc1ccc(/C=C2/SC(=S)N(CC(=O)Nc3ccc(S(N)(=O)=O)cc3)C2=O)cc1` [7k, (E)-2-(5-(4-Methoxybenzylidene)-4-oxo-2-thioxothiazolidin-3-yl)-N-(4-sulfamoylphenyl)acetamide], the pKi at hCA II is 7.90; on hCA I it was 7.10; at hCA IX, 8.03; on hCA XII it was 7.24.

Take `CC(C)c1ccc(/C=C2/SC(=S)N(CC(=O)Nc3ccc(S(N)(=O)=O)cc3)C2=O)cc1` [7l, (E)-2-(5-(4-Isopropylbenzylidene)-4-oxo-2-thioxothiazolidin-3-yl)-N-(4-sulfamoylphenyl)acetamide]: the pKi was 7.16 on hCA II, 6.37 on hCA I, 7.29 on hCA IX and 7.38 at hCA XII.

As to `NS(=O)(=O)c1ccc(NC(=O)CN2C(=O)/C(=C\c3cccc(Oc4ccccc4)c3)SC2=S)cc1` [7m, (E)-2-(4-Oxo-5-(3-phenoxybenzylidene)-2-thioxothiazolidin-3-yl)-N-(4-sulfamoylphenyl)acetamide], the pKi is 7.26 at hCA II, 6.33 on hCA I, 7.55 on hCA IX and 7.33 at hCA XII.

In the case of `COc1ccc(/C=C2/SC(=S)N(CC(=O)Nc3ccc(S(N)(=O)=O)cc3)C2=O)cc1OC` [7n, (E)-2-(5-(3,4-Dimethoxybenzylidene)-4-oxo-2-thioxothiazolidin-3-yl)-N-(4-sulfamoylphenyl)acetamide], the negative logarithm of the Ki (pKi) on hCA II is 7.81; on hCA I, 7.08; at hCA IX it was 8.09; on hCA XII, 7.41.

For the molecule `COc1cc(OC)c(OC)cc1/C=C1/SC(=S)N(CC(=O)Nc2ccc(S(N)(=O)=O)cc2)C1=O` [7o, (E)-2-(4-Oxo-2-thioxo-5-(2,4,5-trimethoxybenzylidene)thiazolidin-3-yl)-N-(4-sulfamoylphenyl)acetamide], the pKi on hCA II is 6.75; at hCA I, 6.47; at hCA IX it was 7.46; at hCA XII it was 8.02.

For the molecule `COc1ccc(/C=C2/SC(=S)N(CC(=O)Nc3ccc(S(N)(=O)=O)cc3)C2=O)c(OC)c1` [7p, (E)-2-(5-(2,4-Dimethoxybenzylidene)-4-oxo-2-thioxothiazolidin-3-yl)-N-(4-sulfamoylphenyl)acetamide], the negative logarithm of the Ki (pKi) at hCA II is 8.10; on hCA I, 6.41; at hCA IX, 7.75; at hCA XII it was 8.01.

With `COc1cc(OC)c(/C=C2/SC(=S)N(CC(=O)Nc3ccc(S(N)(=O)=O)cc3)C2=O)c(OC)c1` [7q, (E)-2-(4-Oxo-2-thioxo-5-(2,4,6-trimethoxybenzylidene)thiazolidin-3-yl)-N-(4-sulfamoylphenyl)acetamide], the pKi on hCA II is 7.27; on hCA I it was 6.53; at hCA IX, 7.63; at hCA XII it was 7.58.

For `NS(=O)(=O)c1ccc(NC(=O)CN2C(=O)/C(=C\c3ccc(F)c(F)c3)SC2=S)cc1` [7r, (E)-2-(5-(3,4-Difluorobenzylidene)-4-oxo-2-thioxothiazolidin-3-yl)-N-(4-sulfamoylphenyl)acetamide], the pKi at hCA II is 7.71; at hCA I, 6.67; at hCA IX, 7.87; at hCA XII, 8.02.

For `NS(=O)(=O)c1ccc(NC(=O)CN2C(=O)/C(=C\c3cccc([N+](=O)[O-])c3)SC2=S)cc1` [7s, (E)-2-(5-(3-Nitrobenzylidene)-4-oxo-2-thioxothiazolidin-3-yl)-N-(4-sulfamoylphenyl)acetamide], the pKi at hCA II was 7.84; on hCA I, 7.11; at hCA IX it was 8.08; on hCA XII, 8.05.

For `COc1cc(/C=C2/SC(=S)N(CC(=O)Nc3ccc(S(N)(=O)=O)cc3)C2=O)cc(OC)c1O` [7t, (E)-2-(5-(4-Hydroxy-3,5-dimethoxybenzylidene)-4-oxo-2-thioxothiazolidin-3-yl)-N-(4-sulfamoylphenyl)acetamide], the pKi at hCA II was 8.02; on hCA I it was 7.11; at hCA IX it was 8.14; at hCA XII, 7.52.

Take `NS(=O)(=O)c1ccc(NC(=O)CN2C(=O)/C(=C\c3ccc([N+](=O)[O-])cc3)SC2=S)cc1` [7u, (E)-2-(5-(4-Nitrobenzylidene)-4-oxo-2-thioxothiazolidin-3-yl)-N-(4-sulfamoylphenyl)acetamide]: the pKi was 8.05 at hCA II, 7.15 at hCA I, 8.11 on hCA IX and 8.02 at hCA XII.

For the molecule `NS(=O)(=O)c1ccc(NC(=O)CN2C(=O)/C(=C3/C(=O)Nc4ccccc43)SC2=S)cc1` [9a, (Z)-2-(4-Oxo-5-(2-oxoindolin-3-ylidene)-2-thioxothiazolidin-3-yl)-N-(4-sulfamoylphenyl)acetamide], the pKi at hCA II is 8.37; on hCA I it was 7.38; on hCA IX, 8.33; on hCA XII, 7.25.

For `Cc1ccc2c(c1)/C(=C1/SC(=S)N(CC(=O)Nc3ccc(S(N)(=O)=O)cc3)C1=O)C(=O)N2` [9b, (Z)-2-(5-(5-Methyl-2-oxoindolin-3-ylidene)-4-oxo-2-thioxothiazolidin-3-yl)-N-(4-sulfamoylphenyl)acetamide], the pKi is 8.26 on hCA II, 7.04 on hCA I, 8.05 at hCA IX and 7.39 on hCA XII.

As usually defined, the pKi is the Ki on a negative log10 scale, so that one unit is a factor of ten. Low readings indicate a large Ki, high ones a small Ki.

For the origin of these results see publication PMC9697818, “Design, Synthesis and Biological Assessment of Rhodanine-Linked Benzenesulfonamide Derivatives as Selective and Potent Human Carbonic Anhydrase Inhibitors” (Molecules, 2022).
